**Q.** Which melting point does the source give for `CCC1(CC)c2cc(-c3cc4ccccc4[nH]3)ccc2-c2ccc(N(c3ccccc3)c3ccccc3)cc21` here?
**A.** Its melting point is 102 to 104 °C.

**Q.** For `CCOC(=O)C(Oc1ccc2ccccc2c1)C(=O)OCC`, which melting point is on record?
**A.** Its melting point is 57 to 58.5 °C.

**Q.** For `CC(C)C[C@H](NC(=O)OCc1ccccc1)C(=O)N[C@@H](Cc1ccccc1)C(=O)CSCc1ccco1`, which melting point is on record?
**A.** The melting point was 77 to 78 °C.

**Q.** For `CCCCCCc1ccc(N2C=CC(=C=C3C(C#N)C(=C(C#N)C#N)OC3(C)C)C=C2)cc1` (stereo not given), which melting point is on record?
**A.** Its melting point is 193 °C.

**Q.** Which melting point does the source give for `Cc1ncccc1-c1ccc(OC2SCC(O)C(O)C2O)cn1` (stereo not given) here?
**A.** The melting point was 167 to 168 °C.

**Q.** With `C=CCOc1ccc(C2C(=O)Oc3c2cc(C(C)(C)C)cc3C(C)(C)C)cc1` (stereo not given) as the compound, how does the melting point read?
**A.** The melting point was 112 to 114 °C.

**Q.** With `CCCn1cc2c(C3C(=O)Nc4ccc(Br)cc43)nc(NCc3cccnc3)nc2n1` (stereo not given) as the compound, how does the melting point read?
**A.** The melting point was 277 to 281 °C.

**Q.** With `CC(C)(C)OC(=O)N[C@@H](Cc1ccc(-c2ccccc2)cc1)C(=O)NCCC#N` as the compound, how does the melting point read?
**A.** The melting point was 163 to 164 °C.

**Q.** With `CC1(C)CCCC(C)(C)N1c1nc(Cl)cc(N2CCCC2)n1` as the compound, how does the melting point read?
**A.** Its melting point is 130 to 135 °C.

**Q.** With `Cc1cc(-c2cc(C(F)(F)F)nn2-c2ccc(S(C)(=O)=O)c(F)c2)ccc1-c1cscn1` as the compound, how does the melting point read?
**A.** The melting point was 112 to 114 °C.

**Q.** For `O=C(Nc1nc(-c2ccc(OC(F)F)cc2)cs1)C1CC1`, which melting point is on record?
**A.** Its melting point is 202 to 203 °C.

**Q.** For `CC(C)OC(=O)C1C(=S)NCC1C` (stereo not given), which melting point is on record?
**A.** Its melting point is 41 to 44 °C.

**Q.** With `Clc1ccc2c(c1)CCC(N1CCCC1)=C2` as the compound, how does the melting point read?
**A.** Its melting point is 117 to 118 °C.

**Q.** Which melting point does the source give for `CC(C)(C)c1cc(C(=O)c2ccc(O)cc2O)cc(C(C)(C)C)c1O` here?
**A.** The melting point was 192 to 193 °C.

**Q.** For `CC(CO)NC(=O)C(NC(=O)OCc1ccccc1)C(Cc1ccccc1)C(=O)O` (stereo not given), which melting point is on record?
**A.** The melting point was 110 to 111 °C.

**Q.** For `Nc1ccc(S(=O)(=O)CCCO)cc1`, which melting point is on record?
**A.** The melting point was 99 to 102 °C.

**Q.** With `C=CCN1C2CCC1C1CCC2N1C(c1ccc(C(=O)N2CCCC2)cc1)c1cccc(OC)c1` (stereo not given) as the compound, how does the melting point read?
**A.** Its melting point is 46 to 48 °C.

**Q.** For `OC(Cn1cncn1)(c1ccc(Cl)cc1)C(F)(F)F` (stereo not given), which melting point is on record?
**A.** Its melting point is 117 to 118 °C.

**Q.** With `O=C(O)CCCc1ccc(F)cc1F` as the compound, how does the melting point read?
**A.** Its melting point is 45 to 47 °C.

**Q.** With `C=CCSc1cc(C(=O)O)cc(N)c1-c1ccccc1` as the compound, how does the melting point read?
**A.** The melting point was 150 °C.

**Q.** With `CCOC(=O)c1c2n(c3c(F)c(F)c(F)cc3c1=O)C(C)S2` (stereo not given) as the compound, how does the melting point read?
**A.** Its melting point is 206 to 210 °C.

**Q.** Which melting point does the source give for `CSC(Cc1ccc(OCCN(C)c2nc3ccccc3o2)cc1)C(=O)O` (stereo not given) here?
**A.** The melting point was 140 to 141 °C.

**Q.** With `Cc1nc(-n2cnn(Cc3ccc(F)cc3)c2=O)sc1C(=O)NCc1cccc(N(C)C)c1` as the compound, how does the melting point read?
**A.** Its melting point is 149 to 151 °C.

**Q.** With `c1ccc(-c2ccccc2OCCCCCCOc2ccccc2-c2ccccc2)cc1` as the compound, how does the melting point read?
**A.** Its melting point is 92 to 95 °C.

**Q.** Which melting point does the source give for `Brc1ccc2c(c1)N=C(N1CCSCC1)c1cccc3c1N2CC3` here?
**A.** The melting point was 165 to 167 °C.

**Q.** With `NS(=O)(=O)CS(=O)c1ccc(Cl)c(Cl)c1` (stereo not given) as the compound, how does the melting point read?
**A.** Its melting point is 205 to 207 °C.

**Q.** With `CNC1(c2ccccc2Cl)C(=O)N(S(=O)(=O)c2ccc(NC(=O)c3cccnc3)cc2)c2ccc(Cl)cc21` (stereo not given) as the compound, how does the melting point read?
**A.** The melting point was 228 °C.

**Q.** For `CC(=O)SC(CC(=O)c1ccc(C)cc1C)C(=O)O` (stereo not given), which melting point is on record?
**A.** Its melting point is 101 to 102 °C.

**Q.** With `CCCCCS(=O)(=O)NC(=O)/C=C/c1ccc(OCCOC)cc1NC(=O)c1ccc(Cl)cc1Cl` as the compound, how does the melting point read?
**A.** Its melting point is 177 °C.

**Q.** With `O=C1CCC(CCC(=O)OCc2ccccc2Cl)N1` (stereo not given) as the compound, how does the melting point read?
**A.** The melting point was 99 to 100 °C.

**Q.** For `CC1=C2C(=O)N(O)C(=O)c3cccc(c32)C(=NO)C1O` (stereo not given), which melting point is on record?
**A.** Its melting point is 302 to 304 °C.

**Q.** For `O=C(Nc1cccc([N+](=O)[O-])c1)C(Br)CCBr` (racemic), which melting point is on record?
**A.** Its melting point is 75 to 76 °C.

**Q.** For `Nc1cc(OCC(CO)OCP(=O)(O)O)nc(N)n1` (racemic), which melting point is on record?
**A.** Its melting point is 213 °C.

**Q.** For `Nc1ncnc2sc(Cc3ccccc3)c(-c3ccc([N+](=O)[O-])cc3)c12`, which melting point is on record?
**A.** Its melting point is 231 to 233 °C.

**Q.** For `C=CCOc1ccc(C(=O)C=Cc2cc(OC)c(CCCC)c(OC)c2)cc1`, which melting point is on record?
**A.** The melting point was 74 to 75 °C.

**Q.** For `CCCOC(=O)c1c(-c2ccncc2)[nH]c(-c2ccncc2)c1C`, which melting point is on record?
**A.** The melting point was 215 to 218 °C.

**Q.** Which melting point does the source give for `COc1cccc2c1CCc1nc(-c3ccncc3)oc1-2` here?
**A.** Its melting point is 158 °C.

**Q.** For `CC(=O)S[C@H]1CNC(=S)C1`, which melting point is on record?
**A.** The melting point was 91 to 93 °C.

**Q.** Which melting point does the source give for `CN(C)CCCOc1ccc(-c2nnc(Cc3ccc(Oc4ccccc4)cc3)o2)cc1` here?
**A.** The melting point was 156 to 158 °C.

**Q.** Which melting point does the source give for `CNC(=O)C(Cc1ccc(OC)cc1)NC(=O)C(CC(C)C)C(CC(=O)NCC(N)=O)SC(C)=O` (stereo not given) here?
**A.** Its melting point is 218 to 219 °C.

**Q.** With `COc1ccc2[nH]c3c(c2c1[N+](=O)[O-])CCC3O` (stereo not given) as the compound, how does the melting point read?
**A.** The melting point was 230 °C.

**Q.** For `O=C(O)Cc1c(C(=O)c2cc(Cl)ccn2)[nH]c2ccc(Cl)cc12`, which melting point is on record?
**A.** The melting point was 243 to 244 °C.

**Q.** For `COc1cc2c(Nc3ccc(Cl)cc3F)ncnc2cc1OCc1ccnc(Br)c1`, which melting point is on record?
**A.** The melting point was 210 to 212 °C.

**Q.** For `CCN(CC)C(=O)c1ccc(C(=C2CCNCC2)c2cccc3ccccc23)cc1`, which melting point is on record?
**A.** The melting point was 80 to 85 °C.

**Q.** Which melting point does the source give for `O=c1oc(-c2ccc(Sc3ccccc3)cc2)nc2sccc12` here?
**A.** The melting point was 203 to 204 °C.

**Q.** Which melting point does the source give for `CS(=O)(=O)Oc1ccc(-c2c3ccccc3c(C(F)(F)F)c3sc4ccccc4c23)cc1` here?
**A.** Its melting point is 215 to 216 °C.

**Q.** For `CC(C)(C)NC(=O)[C@@H]1C[C@H](O)CN1C(=O)OCc1ccccc1`, which melting point is on record?
**A.** Its melting point is 129 to 130 °C.

**Q.** For `O=C(c1ccccc1)C1CCN(CC2CN(c3ccccc3)C(=O)O2)CC1` (stereo not given), which melting point is on record?
**A.** The melting point was 104 to 105 °C.

**Q.** Which melting point does the source give for `Nc1ncc2c(n1)-c1ccc(Cl)cc1C(c1ccccc1Cl)=NC2` here?
**A.** The melting point was 240 to 241 °C.

**Q.** With `N#CSCC(Br)=C(Br)CSC#N` as the compound, how does the melting point read?
**A.** The melting point was 180 °C.
